Measured values: ChEMBL document CHEMBL1201862, “PubChem BioAssay data set” (2004)
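Following 48 hours of exposure in 96-well plates, responses at five concentrations were used to interpolate endpoints linearly. GI50 = concentration required for 50% inhibition of growth.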 Activity calls are given as the source filed them. Rule as the data show it: active = GI50 up to about 1.1 µM and inactive = higher.

Key:
Test in all cases: inhibition of tumour cell growth, NCI panel, 48 h
786-0 = system: 786-0
A498 = system: A498
A549 = system: A549
ACHN = system: ACHN
BT-549 = system: BT-549
CAKI-1 = system: CAKI-1
CCRF-CEM = system: CCRF-CEM
COLO 205 = system: COLO 205
DU-145 = system: DU-145
EKVX = system: EKVX
HCC 2998 = system: HCC 2998
HCT-116 = system: HCT-116
HCT-15 = system: HCT-15
HL-60 = system: HL-60
HOP-62 = system: HOP-62
HOP-92 = system: HOP-92
HT-29 = system: HT-29
Hs-578T = system: Hs-578T
IGROV-1 = system: IGROV-1
K562 = system: K562
KM12 = system: KM12
LOX IMVI = system: LOX IMVI
M14 = system: M14
MCF7 = system: MCF7
MDA-MB-231 = system: MDA-MB-231
MDA-MB-435 = system: MDA-MB-435
MDA-N = system: MDA-N
MOLT-4 = system: MOLT-4
Malme-3M = system: Malme-3M
NCI-H226 = system: NCI-H226
NCI-H23 = system: NCI-H23
NCI-H460 = system: NCI-H460
NCI-H522 = system: NCI-H522
NCI/ADR-RES = system: NCI/ADR-RES
OVCAR-3 = system: OVCAR-3
OVCAR-4 = system: OVCAR-4
OVCAR-5 = system: OVCAR-5
OVCAR-8 = system: OVCAR-8
PC-3 = system: PC-3
RPMI-8226 = system: RPMI-8226
RXF 393 = system: RXF 393
SF-268 = system: SF-268
SK-MEL-28 = system: SK-MEL-28
SK-MEL-2 = system: SK-MEL-2
SK-MEL-5 = system: SK-MEL-5
SK-OV-3 = system: SK-OV-3
SN12C = system: SN12C
SNB-19 = system: SNB-19
SNB-75 = system: SNB-75
SW-620 = system: SW-620
T47D = system: T47D
U-251 = system: U-251
UACC-257 = system: UACC-257
UACC-62 = system: UACC-62
SF-295 = system: SF-295
SF-539 = system: SF-539
TK-10 = system: TK-10
UO-31 = system: UO-31

In the case of C[C@]12CC(c3ccccc3O1)C(C(N)=O)C(=O)N2 (some centres undefined), the GI50 (786-0) is reported as > 100 µM (inactive), the GI50 (A498) is reported as > 100 µM (inactive) and the GI50 (A549) is reported as > 100 µM (inactive). The GI50 (ACHN) was > 100 µM (inactive), the GI50 (BT-549) was > 100 µM (inactive) and the GI50 (CAKI-1) was > 100 µM (inactive). For the same molecule, the GI50 (CCRF-CEM) was > 100 µM (inactive), the GI50 (COLO 205) was > 100 µM (inactive) and the GI50 (DU-145) was > 100 µM (inactive). The GI50 (EKVX) was > 100 µM (inactive), the GI50 (HCC 2998) was > 100 µM (inactive) and the GI50 (HCT-116) was > 100 µM (inactive). The GI50 (HCT-15) was greater than 100 µM, the GI50 (HL-60) was > 100 µM (inactive) and the GI50 (HOP-62) was > 100 µM (inactive). For the same molecule, the GI50 (HOP-92) was > 100 µM (inactive), the GI50 (HT-29) was > 100 µM (inactive) and the GI50 (Hs-578T) was > 100 µM (inactive). The GI50 (IGROV-1) was > 100 µM (inactive), the GI50 (K562) was > 100 µM (inactive) and the GI50 (KM12) was > 100 µM (inactive). The GI50 (LOX IMVI) was > 100 µM (inactive), the GI50 (M14) was > 100 µM (inactive) and the GI50 (MCF7) was > 100 µM (inactive). For the same molecule, the GI50 (MDA-MB-231) was > 100 µM (inactive), the GI50 (MDA-MB-435) was > 100 µM (inactive) and the GI50 (MDA-N) was > 100 µM (inactive). For the same molecule, the GI50 (MOLT-4) was > 100 µM (inactive), the GI50 (Malme-3M) was > 100 µM (inactive) and the GI50 (NCI-H226) was > 100 µM (inactive). For the same molecule, the GI50 (NCI-H23) was > 100 µM (inactive), the GI50 (NCI-H460) was > 100 µM (inactive) and the GI50 (NCI-H522) was > 100 µM (inactive). The GI50 (NCI/ADR-RES) was > 100 µM (inactive), the GI50 (OVCAR-3) was > 100 µM (inactive) and the GI50 (OVCAR-4) was > 100 µM (inactive). The GI50 (OVCAR-5) was > 100 µM (inactive), the GI50 (OVCAR-8) was > 100 µM (inactive) and the GI50 (PC-3) was > 100 µM (inactive). The GI50 (RPMI-8226) was > 100 µM (inactive), the GI50 (RXF 393) was > 100 µM (inactive) and the GI50 (SF-268) was > 100 µM (inactive). The GI50 (SK-MEL-28) was > 100 µM (inactive), the GI50 (SK-MEL-2) was > 100 µM (inactive) and the GI50 (SK-MEL-5) was > 100 µM (inactive). The GI50 (SK-OV-3) was > 100 µM (inactive), the GI50 (SN12C) was > 100 µM (inactive) and the GI50 (SNB-19) was > 100 µM (inactive). For the same molecule, the GI50 (SNB-75) was > 100 µM (inactive), the GI50 (SW-620) was > 100 µM (inactive) and the GI50 (T47D) was > 100 µM (inactive). For the same molecule, the GI50 (U-251) was > 100 µM (inactive), the GI50 (UACC-257) was > 100 µM (inactive) and the GI50 (UACC-62) was > 100 µM (inactive).
In the case of O=C(O)/C=C/C(=O)Nc1nc[nH]n1, the GI50 (786-0) is reported as > 100 µM (inactive), the GI50 (A498) is reported as > 100 µM (inactive) and the GI50 (A549) is reported as > 100 µM (inactive). The GI50 (ACHN) was > 100 µM (inactive), the GI50 (BT-549) was > 100 µM (inactive) and the GI50 (CAKI-1) was > 100 µM (inactive). For the same molecule, the GI50 (COLO 205) was > 100 µM (inactive), the GI50 (DU-145) was > 100 µM (inactive) and the GI50 (EKVX) was > 100 µM (inactive). For the same molecule, the GI50 (HCC 2998) was > 100 µM (inactive), the GI50 (HCT-116) was > 100 µM (inactive) and the GI50 (HCT-15) was greater than 100 µM. For the same molecule, the GI50 (HL-60) was 0.034 µM (active), the GI50 (HOP-62) was > 100 µM (inactive) and the GI50 (HOP-92) was > 100 µM (inactive). The GI50 (HT-29) was > 100 µM (inactive), the GI50 (Hs-578T) was > 100 µM (inactive) and the GI50 (IGROV-1) was > 100 µM (inactive). The GI50 (KM12) was > 100 µM (inactive), the GI50 (LOX IMVI) was > 100 µM (inactive) and the GI50 (M14) was > 100 µM (inactive). For the same molecule, the GI50 (MCF7) was > 100 µM (inactive), the GI50 (MDA-MB-231) was > 100 µM (inactive) and the GI50 (MDA-MB-435) was > 100 µM (inactive). The GI50 (MDA-N) was > 100 µM (inactive), the GI50 (MOLT-4) was 62.5 µM (inactive) and the GI50 (NCI-H226) was > 100 µM (inactive). For the same molecule, the GI50 (NCI-H23) was > 100 µM (inactive), the GI50 (NCI-H460) was > 100 µM (inactive) and the GI50 (NCI-H522) was > 100 µM (inactive). For the same molecule, the GI50 (NCI/ADR-RES) was > 100 µM (inactive), the GI50 (OVCAR-3) was > 100 µM (inactive) and the GI50 (OVCAR-4) was > 100 µM (inactive). For the same molecule, the GI50 (OVCAR-5) was > 100 µM (inactive), the GI50 (OVCAR-8) was > 100 µM (inactive) and the GI50 (PC-3) was > 100 µM (inactive). The GI50 (RPMI-8226) was > 100 µM (inactive), the GI50 (RXF 393) was > 100 µM (inactive) and the GI50 (SF-268) was > 100 µM (inactive). The GI50 (SF-295) was > 100 µM (inactive), the GI50 (SF-539) was > 100 µM (inactive) and the GI50 (SK-MEL-28) was > 100 µM (inactive). The GI50 (SK-MEL-2) was > 100 µM (inactive), the GI50 (SK-MEL-5) was > 100 µM (inactive) and the GI50 (SK-OV-3) was > 100 µM (inactive). The GI50 (SN12C) was > 100 µM (inactive), the GI50 (SNB-19) was > 100 µM (inactive) and the GI50 (SNB-75) was > 100 µM (inactive). The GI50 (SW-620) was > 100 µM (inactive), the GI50 (T47D) was > 100 µM (inactive) and the GI50 (TK-10) was > 100 µM (inactive). For the same molecule, the GI50 (U-251) was > 100 µM (inactive), the GI50 (UACC-257) was > 100 µM (inactive) and the GI50 (UACC-62) was > 100 µM (inactive). The GI50 (UO-31) was > 100 µM (inactive).
